Among the data in US6602889B1, “5-heteroaryl substituted indoles” (H. Lundbeck A.S., priority 1998, dated 2003) are melting point and IC50 values, retold here.

The target of data set [1] is T1, dopamine D2 receptors (Rattus norvegicus, UniProt P61169).
T1 construct: Male Wistar (Mol:Wistar) rats (125-250 g) are sacrificed and striatal tissue is dissected and weighed; from tissue; host or cells: rat corpus striatum membranes (male Wistar rats)
The experiment in a line: Inhibition of 3H-spiperone binding to dopamine D2 receptors in rat corpus striatum in vitro. As for the experimental part:
Inhibition of ^3H-Spiperone Binding to Dopamine D2 Receptors in Rat Corpus Striatum in vitro
By this method, the inhibition by drugs of the binding of ^3H -spiperone (=^3H-spiro-peridol) (0.5 nM) to dopamine D-2 receptors in membranes from rat corpus striatum is determined in vitro. […] Pharmacol. Toxicol. […] This is a test for dopamine D2 receptor binding affinity in vitro.
The tissue is homogenized (Ultra Turrax, 10 sec.) in 10 mL of ice-cold 50 mM K-phosphate buffer pH 7.4 (at 25° C.). The homogenate is centrifuged twice at 20,000 g for 10 min at 4° C. with rehomogenization of the pellet in 10 mL ice-cold buffer. The final pellet is homogenized in 1300 vol (w/v) ice-cold buffer.
The binding experiment is initiated by addition of 100 μl of ^3H-spiperone (final concentration 0.5 nM) and by placing the tubes in a 37° C. water bath. […] The tubes are rinsed with 5 mL ice-cold buffer which are then poured on the filters. Thereafter, the filters are washed with 2×5 mL of buffer. The filters are placed in counting vials and 4 mL of appropriate scintillation fluid (e.g. Picofluor ™15) are added. After shaking for 1 h and storage for 2 hrs in the dark, the content of radioactivity is determined by liquid scintillation counting. Specific binding is obtained by subtracting the nonspecific binding in the presence of 10 μM of 6,7-ADTN.
For determination of the inhibition of binding, five concentrations of drugs covering 3 orders of magnitude are used.
England, specific activity 15-25 Ci/mmol.

The target in data set [2] is α1-adrenoceptors. Briefly: Inhibition of 3H-prazosin binding to α1-adrenoceptors in rat brain in vitro. The note with it: 3H-prazosin 0.25 nM, membranes from rat brain. The protocol:
Method and results in Hyttel & Larsen, J. Neurochem.
The tissue is homogenized (Ultra Turrax, 10 se) in 10 mL of ice cold 50 mM tris buffer pH 7.7 (at 25° C.). The homogenate is centrifuged twice at 20,000 g for 10 min at 4° C. with rehomogenization of the pellet in 10 ml icecold buffer. The final pellet is homogenized in 250 vol (w/v) icecold buffer.
The binding experiment is initiated by addition of […] of tissue suspension (final tissue content corresponds to 3 mg original tissue) and by placing the 96 deep well titer plate in a 25 ° C. water bath. All tests are made in triplicates. After incubation for 20 min, the samples are filtered on a Brandel harvester under vacuum (18 inch. Hg) through printed filtermat B (13 mm). Titerplates and filter are washed 1×10 sec flow 50 L/h with ice cold buffer.
The filter mat is dried for 1 h at 110° C. and then placed in a sample bag with Meltilex B/HS (14.5 g) and melted together on the T-Tray heat sealer.
(§1) For determination of the inhibition of binding, five concentrations of drugs covering 3 decades are used.

The target in data set [3] is T2, serotonin S2 (5-HT2A) receptors (Rattus norvegicus, UniProt P14842).
T2 construct: Male Wistar (Mol:Wist) rats (125-250 g) are sacrificed and cortical tissue is dissected and weighed; from tissue; host or cells: rat cortex membranes (male Wistar rats)
Briefly: Inhibition of 3H-ketanserin binding to serotonin S2 (5-HT2A) receptors in rat cortex in vitro. The protocol: Inhibition of ^3H-Ketanserin Binding to Serotonin S2 (5-HT2Å) Receptors in Rat Cortex in vitro
By this method the inhibition by drugs of the binding of ^3H-ketanserin (0.5 nM) to serotonin S2 (5-HT2) receptors in membranes from rat cortex is determined in vitro.
The tissue is homogenized (Ultra Turrax, 10 sec) in 10 mL of ice cold 50 mM tris buffer pH 7.7 (at 25° C.). The centrifuge glassware used in this step has been rinsed by sonication for 10 min in ethanol. The homogenate is centrifuged twice at 20,000 g for 10 min. at 4° C., with rehomogenization of the pellet in 10 mL icecold buffer. The final pellet is homogenized in 250 vol (w/v) icecold buffer.
Incubation tubes (96 deep well titer plate) kept on ice receive […] of ^3H ketanserin (final concentration 0.5 nM).
The binding experiment is initiated by addition of […] of tissue suspension (final tissue content corresponds to 4 mg original tissue) and by placing the 96 deep well titer plate in a 37° C. water bath. All tests are made in triplicates.
After incubation for 30 min, the samples are filtered on a Brandel harvester under vacuum (18 inch. Hg) through printed filter mat B (13 mm). Titerplate and filter are washed 2×10 sec. flow 50 L/h with ice cold buffer.
The printed filter mat with purred labelled tissue are dried for 1 h at 110° C. and hereafter placed in a sample bag with Meltilex B/HS 14.5 g and melted together on the T-tray heat seal.
Specific binding is obtained by subtracting the nonspecific binding in the presence of 1 mM mianserin.
as §1
^3H-ketanserin=(ethylene-^3H)-ketanserin hydrochloride from New England Nuclear, specific activity 60-80 Ci/mmol.

Setting [4] is: 3H-spiperone 0.5 nM, membranes from rat corpus striatum, read-out: IC50 values in nM, D2.
The mark [5] stands for this setting: 3H-ketanserin 0.5 nM, membranes from rat cortex, read-out: IC50 values in nM, 5-HT2A.

Structures can show the parent of a compound that is named as a salt. Where two headings read alike, the source gives them in different places.

T2 sequence (P14842 whole entry): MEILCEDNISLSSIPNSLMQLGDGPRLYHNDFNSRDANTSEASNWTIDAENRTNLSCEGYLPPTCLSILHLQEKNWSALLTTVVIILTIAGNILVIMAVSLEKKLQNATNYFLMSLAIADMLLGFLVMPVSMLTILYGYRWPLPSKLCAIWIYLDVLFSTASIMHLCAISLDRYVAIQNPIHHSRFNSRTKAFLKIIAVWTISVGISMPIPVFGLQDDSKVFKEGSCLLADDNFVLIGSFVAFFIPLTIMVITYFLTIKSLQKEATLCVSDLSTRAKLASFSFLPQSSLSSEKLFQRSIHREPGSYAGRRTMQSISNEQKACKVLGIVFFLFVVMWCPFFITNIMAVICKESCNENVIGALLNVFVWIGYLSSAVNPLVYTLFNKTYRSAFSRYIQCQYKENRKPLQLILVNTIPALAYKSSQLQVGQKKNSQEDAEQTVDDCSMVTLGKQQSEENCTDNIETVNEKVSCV
T1 sequence (P61169 whole entry): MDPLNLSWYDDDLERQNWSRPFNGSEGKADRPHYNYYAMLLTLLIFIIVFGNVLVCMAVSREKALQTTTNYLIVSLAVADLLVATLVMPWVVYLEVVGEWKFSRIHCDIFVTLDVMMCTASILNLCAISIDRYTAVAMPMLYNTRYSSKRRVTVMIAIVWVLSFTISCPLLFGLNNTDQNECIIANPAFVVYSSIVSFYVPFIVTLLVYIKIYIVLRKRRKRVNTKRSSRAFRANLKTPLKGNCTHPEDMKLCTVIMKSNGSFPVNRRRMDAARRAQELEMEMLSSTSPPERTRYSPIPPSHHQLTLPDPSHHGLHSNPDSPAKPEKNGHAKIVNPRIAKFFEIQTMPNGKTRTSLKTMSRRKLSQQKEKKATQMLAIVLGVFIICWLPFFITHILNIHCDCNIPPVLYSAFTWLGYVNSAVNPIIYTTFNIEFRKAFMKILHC

`Cn1nnnc1Cc1ccc2c(c1)c(C1CCN(CCN3CCNC3=O)CC1)cn2-c1ccc(F)cc1` (as salt: fumarate) [Compound 23c, 1-[2-[4-[(-(4-fluorophenyl)-5-[(1-methyltetrazol-5-yl)methyl]-1H-indol-3-yl]-1-piperidinyl]ethyl]-2-imidazolidinone 2.5 fumarate] came in with a melting point of 169 to 171 °C.

Consider `CCn1nnc(-c2ccc3c(c2)c(C2CCN(CCN4CCNC4=O)CC2)cn3-c2ccc(F)cc2)n1.Cl.Cl` [Compound 23a, 1-[2-[4-[5-(2-ethyltetrazol-5-yl)-1-(4-fluorophenyl)-1H-indol-3-yl]-1-piperidinyl]ethyl]-2-imidazolidinone dihydrochloride], for which the melting point was in the range of 172 to 174 °C. Besides, the IC50 in data set [1] (setting [4]) is above 100 nM. Moreover, in data set [2], the IC50 is 6.1 nM. Also, in data set [3] (setting [5]), the IC50 is 53 nM.

Take `Cn1nnc(Cc2ccc3c(c2)c(C2=CCN(CCN4CCNC4=O)CC2)cn3-c2ccc(F)cc2)n1` [Compound 22e, 1-[2-[4-[1-(4-fluorophenyl)-5-[(2-methyltetrazol-5-yl)methyl]-1H-indol-3-yl]-1,2,3,6-tetrahydropyridin-1-yl]ethyl]-2-imidazolidinone]: the melting point was 129 to 131 °C. In data set [1] (setting [4]), the IC50 was 8.6 nM. For the same compound, the half-inhibitory concentration (IC50) in data set [2] was 1.5 nM. The IC50 in data set [3] (setting [5]) came out at 5 nM.

As for `Cn1nnnc1Cc1ccc2c(c1)c(C1CCN(CCN3CCNC3=O)CC1)cn2-c1ccc(F)cc1` [Compound 23c, 1-[2-[4-[(-(4-fluorophenyl)-5-[(1-methyltetrazol-5-yl)methyl]-1H-indol-3-yl]-1-piperidinyl]ethyl]-2-imidazolidinone 2.5 fumarate], the IC50 in data set [1] (setting [4]) was 3.7 nM; in data set [2], 0.5 nM; in data set [3] (setting [5]) it was 8.3 nM.

On to `CN1CCC(c2cn(-c3ccc(F)cc3)c3ccc(-c4nnn(C)n4)cc23)CC1` [Compound 23b, 1-(4-fluorophenyl)-3-(1-methyl-4-piperidinyl)-5-(2-methyltetrazol-5-yl)-1H-indole], for which the concentration for half-maximal inhibition (IC50) in data set [1] (setting [4]) was above 100 nM; in data set [2], 7.1 nM; in data set [3] (setting [5]), above 100 nM.

As to `Cn1nnnc1-c1ccc2c(c1)c(C1=CCN(CCN3CCNC3=O)CC1)cn2-c1ccc(F)cc1` [Compound 22b, 1-[2-[4-[1-(4-fluorophenyl)-5-(1-methyltetrazol-5-yl)-1H-indol-3-yl]-1,2,3,6-tetrahydropyridin-1-yl]ethyl]-2-imidazolidinone], the melting point fell in the range of 198 to 200 °C. The IC50 in data set [1] (setting [4]) is 4.7 nM. In data set [2], this compound had an IC50 of 0.75 nM. Moreover, the IC50 in data set [3] (setting [5]) was determined as 38 nM.

`Cn1nnc(-c2ccc3c(c2)c(C2=CCN(CCN4CCNC4=O)CC2)cn3-c2ccncc2)n1` [Compound 5a, 1-[2-[4-[5-(2-Methyltetrazol-5-yl)-1-(4-pyridyl)-1H-indol-3-yl]-1,2,3,6-tetrahydro-1-pyridinyl]ethyl]-2-imidazolidinone] came in with a melting point of 177 to 178 °C. Besides, the IC50 in data set [1] (setting [4]) is above 100 nM. Besides, in data set [2], the IC50 was determined as 12 nM. In addition, in data set [3] (setting [5]), the IC50 is above 100 nM.

In turn, `CCn1nnc(-c2ccc3c(c2)c(C2=CCN(CCN4CCNC4=O)CC2)cn3-c2ccc(F)cc2)n1` [Compound 22c] returned a melting point of 179 to 181 °C. Moreover, in data set [1] (setting [4]), the IC50 came out at 110 nM. In data set [2], this compound came in with an IC50 of 7.8 nM. For the same compound, the IC50 in data set [3] (setting [5]) is above 100 nM.

The compound `CCn1ncc(-c2ccc3c(c2)c(C2=CCN(CCN4CCNC4=O)CC2)cn3-c2ccc(F)cc2)n1` [Compound 22i, 1-[2-[4-[5-(2-ethyltriazol-4-yl)-1-(4-fluorophenyl)-1H-indol-3-yl]-1,2,3,6-tetrahydropyridin-1-yl]ethyl]-2-imidazolidinone] returned a melting point of 143 to 145 °C. Besides, in data set [1] (setting [4]), the IC50 worked out at 51 nM. Also, in data set [3] (setting [5]), the IC50 worked out at 22 nM.

`CN1CC=C(c2cn(-c3ccc(F)cc3)c3ccc(-c4nnn(C)n4)cc23)CC1` [Compound 21b] yielded a melting point of 142 to 144 °C. This compound yielded an IC50 in data set [1] of 14 nM. For the same compound, the IC50 in data set [2] turned out to be 9.4 nM. Also, in data set [3], the IC50 is above 100 nM.

Take `Cn1nnc(-c2ccc3c(c2)c(C2CCN(CCN4CCNC4=O)CC2)cn3-c2ccncc2)n1` [Compound 6a, 1-[2-[4-[5-(2-Methyltetrazol-5-yl)-1-(4-pyridyl)-1H-indol-3-yl]-1-piperidinyl]ethyl]-2-imidazolidinone]: the melting point was in the range of 204 to 206 °C. Moreover, the IC50 in data set [1] (setting [4]) was above 100 nM. In addition, in data set [2], the IC50 was determined as 18 nM. The IC50 in data set [3] (setting [5]) was above 100 nM.

On to `Cn1nnc(CCN2CC=C(c3cn(-c4ccc(F)cc4)c4ccc(-c5nnn(C)n5)cc34)CC2)n1` [Compound 17a, 1-(4-Fluorophenyl)-5-(2-methyltetrazol-5-yl)-3-[1-[2-(2-methyltetrazo-5-yl)ethyl]-1,2,3,6-tetrahydropyridin-4-yl]-1H-indole], for which the results for the IC50 in data set [1] (setting [4]), in data set [2] and in data set [3] (setting [5]) were 20 nM, 4 nM and 70 nM, respectively.

Compound `Cn1ncc(-c2ccc3c(c2)c(C2=CCN(CCN4CCNC4=O)CC2)cn3-c2ccc(F)cc2)n1` [Compound 22g, 1-[2-[4-[1-(4-fluorophenyl)-5-(2-methyltriazol-4-yl)-1H-indol-3-yl]-1,2,3,6-tetrahydropyridin-1-yl]ethyl]-2-imidazolidinone] yielded a melting point of 175 to 177 °C. In data set [1] (setting [4]), the IC50 was found to be 28 nM. Besides, the IC50 in data set [3] (setting [5]) was 94 nM.

For `COc1cc2nc(N3CCN(C(=O)c4ccco4)CC3)nc(N)c2cc1OC` [Prazosin, prazosin, reference compound], the IC50 in data set [1] (setting [4]) turned out to be 11000 nM; in data set [2], 0.36 nM.

`O=C1NCCN1CCN1CCC(c2cn(-c3ccc(F)cc3)c3ccc(Cl)cc23)CC1` [Sertindole, sertindole, reference compound]: in data set [2], the IC50 was 3.4 nM.

For `Cn1nnc(-c2ccc3c(c2)c(C2=CCN(CCN4CCNC4=O)CC2)cn3-c2ccc(F)cc2)n1` [Compound 22a, 1-[2-[4-[1-(4-Fluorophenyl)-5-(2-methyltetrazol-5-yl)-1H-indol-3-yl]-1,2,3,6-tetrahydropyridin-1-yl]ethyl]-2-imidazolidinone], the IC50 in data set [1] (setting [4]) was 37 nM; in data set [2], 1.5 nM; in data set [3] (setting [5]) it was 210 nM.

Regarding `Cn1nnc(-c2ccc3c(c2)c(C2=CCN(CCc4nnnn4C)CC2)cn3-c2ccc(F)cc2)n1` [Compound 17b, 1-(4-Fluorophenyl)-5-(2-methyltetrazol-5-yl)-3-[1-[2-(1-methyltetrazol-5-yl)ethyl]-1,2,3,6-tetrahydropyridin-4-yl]-1H-indole, fumarate], the values for the IC50 in data set [1] (setting [4]), in data set [2] and in data set [3] (setting [5]) were 97 nM, 4.9 nM and 450 nM, respectively.
